{"source": "patent US4232035A", "about": "“Carbamate pesticidal compounds compositions and methods of use” (priority 1975, dated 1980)", "assay_type_in_all_cases": "in vivo", "key": {"[1]": {"test_system": "southern armyworm (Prodenia eridania, (Cram.))", "test": "Southern Armyworm Leaf Spray Test", "parameters": "key: A: excellent control; B: partial control; C: no control", "settings": "500 parts per million leaf spray; three days", "method": "(§1) Suspensions of the test compounds were prepared by dissolving one gram of compound in 50 milliliters of acetone in which had been dissolved 0.1 gram (10 percent of the weight of compound) of an alkylphenoxy polyethoxyethanol surfactant, as an emulsifying or dispersing agent. The resulting solution was mixed into 150 milliliters of water to give roughly 200 milliliters of a suspension containing the compound in finely divided form. The thus-prepared stock suspension contained 0.5 percent by weight of compound. The test concentrations in parts per million by weight employed in the tests described hereinbelow were obtained by appropriate dilutions of the stock suspension with water. The test procedures were as follows:\nLarvae of the southern armyworm (Prodenia eridania, (Cram.)), reared on Tendergreen bean plants at a temperature of 80°±5° F. and a relative humidity of 50±5 percent, constituted the test insects.\nThe test compounds were formulated by diluting the stock suspension with water to give a suspension containing 500 parts of test compound per million parts of final formulation. Potted Tendergreen bean plants of standard height and age were placed on a revolving turntable and sprayed with 100-110 milliliters of test compound formulation by use of a DeVilbiss spray gun set at 10 psig air pressure. This application, which lasted 25 seconds, was sufficient to wet plants to run-off. As a control, 100-110 milliliters of a water-acetone-emulsifier solution containing no test compound were also sprayed on infested plants. When dry, the paired leaves were separated and each one was placed in a 9 centimeter Petri dish lined with moistened filter paper. Five randomly selected larvae were introduced into each dish and the dishes were closed. The closed dishes were labeled and held at 80°-85° F. for three days. Although the larvae could easily consume the whole leaf within twenty-four hours, no more food was added. Larvae which were unable to move the length of the body, even upon stimulation by prodding, were considered dead. Percent mortality was recorded for various concentration levels."}, "[2]": {"test_system": "bean aphid (Aphis fabae Scop.)", "test": "Bean Aphid Foliage Spray Test", "parameters": "key: A: excellent control; B: partial control; C: no control", "settings": "500 parts per million foliage spray; 24 hour holding period", "method": "as §1\nAdults and nymphal stages of the bean aphid (Aphis fabae Scop.) reared on potted dwarf nasturtium plants at 65°-70° F. and 50-70 percent relative humidity, constituted the test insects. For testing purposes, the number of aphids per pot was standardized to 100-150 by trimming plants containing excess aphids.\nThe test compounds were formulated by diluting the stock suspension with water to give a suspension containing 500 parts of test compound per million parts of final formulation.\nThe potted plants (one pot per compound tested) infested with 100-150 aphids, were placed on a revolving turntable and sprayed with 100-110 milliliters of test compound formulation by use of a DeVilbiss spray gun set at 40 psig. air pressure. This application, which lasted 25 seconds, was sufficient to wet the plants to run-off. As a control, 100-110 milliliters of a water-acetone-emulsifier solution containing no test compound were also sprayed on infested plants. After spraying, the pots were placed on their sides on a sheet of white standard mimeograph paper which had been previously ruled to facilitate counting. Temperature and humidity in the test room during the 24 hour holding period were 65°-70° F. and 50-70 percent, respectively. Aphids which fell onto the paper and were unable to remain standing after being uprighted were considered dead. Aphids remaining on the plants were observed closely for movement and those which were unable to move the length of the body upon stimulation by prodding were considered dead. Percent mortality was recorded for various concentration levels."}, "[3]": {"test_system": "root-knot nematode (Meloidogyne incognita var. acrita)", "test": "Nematode Test", "parameters": "key: 1: severe galling; equal to untreated control; 2: moderate galling; 3: light galling; 4: very light galling; 5: no galling", "settings": "10 ml of 500 parts per million formulation per jar of soil; cucumber indicator crop, approximately three weeks", "method": "as §1\nInfective migratory larvae of the root-knot nematode, (Meloidogyne incognita var. acrita) were reared in the greenhouse on roots of Rutgers variety tomato plant. Infected tomato plants were removed from the culture and the roots were chopped very finely. A small amount of inoculum from the roots was added to pint Mason jars containing approximately 180 cc of soil. The jars containing the inoculum and soil were capped and incubated for one week at room temperature. During this period eggs of the nematode hatched and the larvae forms migrated into the soil.\nThe test compounds were formulated by diluting the stock suspension with water to give a suspension containing 500 parts of test compound per million parts of final formulation. 10 milliliters of the test formulation was added to each of two jars for each dosage treated. As a control 10 milliliters of a water-acetone-emulsifier solution containing no test compound was also added to jars containing nematode larvae. The jars were capped and the contents thoroughly mixed on a kale mill for five minutes. The jars remained capped at room temperature for a period of 48 hours and the contents were then transferred to 3 inch pots. Subsequently, the pots were seeded to cucumber as an indicator crop and placed in the green house where they were cared for in the normal fashion for growing potted cucumber for approximately three weeks. These cucumber plants were then removed from the pots, the soil washed from the roots and the amount of galling visually rated."}, "[4]": {"test_system": "Mexican bean beetle (Epilachna varivestis, Muls.)", "test": "Mexican Bean Beetle Leaf Spray Test", "parameters": "key: A: excellent control; B: partial control; C: no control", "settings": "500 parts per million leaf spray; fourth instar larvae; three days", "method": "as §1\nFourth instar larvae of the Mexican bean beetle (Epilachna varivestis, Muls.), reared on Tendergreen bean plants at a temperature of 80°±5° F. and 50±5 percent relative humidity, were the test insects.\nThe test compounds were formulated by diluting the stock suspension with water to give a suspension containing 500 parts of test compound per million parts of final formulation. Potted Tendergreen bean plants of standard height and age were placed on a revolving turntable and sprayed with 100-110 milliliters of test compound formulation by use of a DeVilbiss spray gun set at 10 psig air pressure. This application, which lasted 25 seconds, was sufficient to wet plants to run-off. As a control, 100-110 milliliters of a water-acetone-emulsifier solution containing no test compound were also sprayed on infested plants. When dry, the paired leaves were separated and each was placed in a 9 centimeter Petri dish lined with moistened filter paper. Five randomly selected larvae were introduced into each dish, and the dishes were closed. The closed dishes were labeled and held at a temperature of 80°±5° F. for three days. Although the larvae could easily consume the leaf within 24 to 48 hours, no more food was added. Larvae which were unable to move the length of the body, even upon stimulation, were considered dead."}}}
{"smiles": "CN(SSC(C)(C)C)C(=O)ON=C1SC(C)(C)C(=O)N1C", "values": [{"measurement": "S. Armyworm, pesticidal activity rating", "setting": "[1]", "result": "A"}, {"measurement": "Aphid, pesticidal activity rating", "setting": "[2]", "result": "A"}, {"measurement": "Nematodes, nematocidal toxicity rating (galling)", "setting": "[3]", "result": 1}, {"measurement": "M. Bean Beetle, pesticidal activity rating", "setting": "[4]", "result": "A"}]}
{"smiles": "CN(SSC(C)(C)C)C(=O)ON=C1SCCS1", "values": [{"measurement": "S. Armyworm, pesticidal activity rating", "setting": "[1]", "result": "A"}, {"measurement": "Aphid, pesticidal activity rating", "setting": "[2]", "result": "A"}, {"measurement": "Nematodes, nematocidal toxicity rating (galling)", "setting": "[3]", "result": 5}, {"measurement": "M. Bean Beetle, pesticidal activity rating", "setting": "[4]", "result": "A"}]}
